# Experimental data as given in patent US9611272B2, “Polymorphic forms of icotinib and uses thereof” (BETTA PHARMACEUTICALS CO., LTD, priority 2013, dated 2017).
# Where a name gives a salt, the structure may show the parent alone. Read-outs that look alike come from different tables or passages of the source.
# Assay: Pharmacokinetic study of Icotinib hydrochloride and Polymorph Form II of Icotinib, oral suspension, plasma by HPLC
# Format: in vivo
# Conditions: fasted male SD rats, oral suspension in sodium carboxymethyl cellulose, dose equivalent to 50 mg/kg Icotinib
# Excerpt: Pharmacokinetic Study of Icotinib Hydrochloride and the Polymorph Form II of Icotinib
# Drugs and reagents: the Icotinib hydrochloride used in this study was of Crystalline Form I disclosed by the WO2010/003313. Polymorph Form II of Icotinib and Icotinib hydrochloride were ground to fine particles. The material content (purity) was not less than 99.0%. Sodium carboxymethyl cellulose was medical supply graded.
# Experimental animals: SD rats were divided to the Icotinib hydrochloride group and a Polymorph Form II group.
# Pharmaceutical preparation: the amount of each compound was weighed and then sodium carboxymethyl cellulose was added to result in the test compound's concentration of 0.5%. The solid mixture was then added to prepare a suspension thereof at a final concentration of […] in water.
# Administration and sample collection: each suspension was administered orally to fasted SD rats at a dose equivalent to 50 mg/kg Icotinib in a dose volume of 5 ml/kg. 0.4 ml of blood was collected in EDTA-K pre anticoagulant tubes at time intervals of 0.5, 1, 1.5, 2, 4, 6, 8 and 24 hours after the administration of the test compound, centrifuged at 3000 rpm for 10 minutes, and 120 μl plasma was collected and kept in cold storage.
# Samples were analyzed by high performance liquid chromatography. The chromatographic conditions utilized C18-silane bonded silica as stationary phase, 0.02 mol/L of sodium dihydrogen phosphate in acetonitrile (40:60, using sodium hydroxide solution to adjust pH to 5.0) as the mobile phase and a detection wavelength of 334 nm.
Tmax (hydrochloride) [h],"AUC(0-inf) (male, SD, rat, po, 50 mg/kg) [ng·h/mL]","half-life (male, SD, rat, po, 50 mg/kg) [h]","AUC(0-t) (male, SD, rat, po, 50 mg/kg, read-out: AUC(0-24)) [ng·h/mL]","Cmax (male, SD, rat, po, 50 mg/kg, read-out: Cmax) [ng/mL]",AUC(0-24) [ng·h/mL],AUC(0-∞) [ng·h/mL],Cmax [ng/mL],T1/2 [h],Tmax [h],SMILES
1.3 ± 1.1,39800 ± 28500,3.1 ± 1.4,39200 ± 27600,4900 ± 2600,–,–,–,–,–,C#Cc1cccc(Nc2ncnc3cc4c(cc23)OCCOCCOCCO4)c1 [Icotinib hydrochloride]
–,–,–,–,–,62400 ± 30100,63000 ± 30000,5800 ± 2600,3.5 ± 0.6,4.5 ± 2.6,"C#Cc1cccc(Nc2ncnc3cc4c(cc23)OCCOCCOCCO4)c1 [Polymorph Form II of Icotinib, Icotinib]"
